Publication PMC9516332 (Frontiers in Oncology, 2022)
Where two headings read alike, the source gives them in different places.

Legend:
Assay in all cases: Kinase panel profiling at 1 µmol/L (MSA or IMAP), percentage inhibition
Type in all cases: biochemical
[1] = biological target: panel of 255 wild-type kinases (Homo sapiens, UniProt P04626); settings: kinase HER2; 1 µmol/L single concentration; read-out: %-inhibition at 1 µmol/L, HER2
[2] = biological target: panel of 255 wild-type kinases (Homo sapiens, UniProt P05129); settings: kinase PKCγ; 1 µmol/L single concentration; read-out: %-inhibition at 1 µmol/L, PKCγ
[3] = biological target: panel of 255 wild-type kinases (Homo sapiens, UniProt P29317); settings: kinase EPHA2; 1 µmol/L single concentration; read-out: %-inhibition at 1 µmol/L, EPHA2
[4] = biological target: T1, panel of 255 wild-type kinases (Homo sapiens, UniProt P52333); settings: read-out: %-inhibition at 1 µmol/L, JAK3
T1 sequence (P52333 1-1124): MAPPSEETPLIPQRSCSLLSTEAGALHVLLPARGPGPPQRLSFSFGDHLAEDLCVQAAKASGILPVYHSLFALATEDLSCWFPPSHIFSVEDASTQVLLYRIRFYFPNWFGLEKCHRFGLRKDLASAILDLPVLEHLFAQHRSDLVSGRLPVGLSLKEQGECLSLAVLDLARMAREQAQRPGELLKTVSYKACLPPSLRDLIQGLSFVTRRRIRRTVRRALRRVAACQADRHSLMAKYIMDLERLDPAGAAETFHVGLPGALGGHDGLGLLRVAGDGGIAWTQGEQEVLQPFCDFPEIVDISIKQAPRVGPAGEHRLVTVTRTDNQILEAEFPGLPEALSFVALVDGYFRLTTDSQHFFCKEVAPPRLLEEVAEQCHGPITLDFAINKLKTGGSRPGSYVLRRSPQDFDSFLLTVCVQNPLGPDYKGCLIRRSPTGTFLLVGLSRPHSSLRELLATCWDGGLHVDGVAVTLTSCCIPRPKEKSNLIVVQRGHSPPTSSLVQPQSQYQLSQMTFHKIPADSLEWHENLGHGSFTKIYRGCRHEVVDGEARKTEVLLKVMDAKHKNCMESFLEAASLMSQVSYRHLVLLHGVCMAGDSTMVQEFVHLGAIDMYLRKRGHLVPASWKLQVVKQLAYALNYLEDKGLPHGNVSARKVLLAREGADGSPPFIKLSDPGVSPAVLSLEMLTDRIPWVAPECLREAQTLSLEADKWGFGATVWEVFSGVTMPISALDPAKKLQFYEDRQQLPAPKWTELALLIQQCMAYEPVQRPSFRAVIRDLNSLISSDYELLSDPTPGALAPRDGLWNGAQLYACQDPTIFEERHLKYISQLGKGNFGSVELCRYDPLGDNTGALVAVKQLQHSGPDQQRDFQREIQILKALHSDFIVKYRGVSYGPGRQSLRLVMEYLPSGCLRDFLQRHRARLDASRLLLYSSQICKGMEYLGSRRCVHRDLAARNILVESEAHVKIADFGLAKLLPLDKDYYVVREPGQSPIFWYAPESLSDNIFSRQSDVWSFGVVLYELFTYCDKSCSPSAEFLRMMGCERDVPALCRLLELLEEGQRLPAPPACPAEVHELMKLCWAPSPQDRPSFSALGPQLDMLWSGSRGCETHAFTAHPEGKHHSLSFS

[5] = biological target: panel of 255 wild-type kinases (Homo sapiens, UniProt P53350); settings: kinase PLK1; 1 µmol/L single concentration; read-out: %-inhibition at 1 µmol/L, PLK1
[6] = biological target: T2, panel of 255 wild-type kinases (Homo sapiens, UniProt Q02156); settings: kinase PKCε; 1 µmol/L single concentration; read-out: %-inhibition at 1 µmol/L, PKCε
T2 sequence (Q02156 1-737): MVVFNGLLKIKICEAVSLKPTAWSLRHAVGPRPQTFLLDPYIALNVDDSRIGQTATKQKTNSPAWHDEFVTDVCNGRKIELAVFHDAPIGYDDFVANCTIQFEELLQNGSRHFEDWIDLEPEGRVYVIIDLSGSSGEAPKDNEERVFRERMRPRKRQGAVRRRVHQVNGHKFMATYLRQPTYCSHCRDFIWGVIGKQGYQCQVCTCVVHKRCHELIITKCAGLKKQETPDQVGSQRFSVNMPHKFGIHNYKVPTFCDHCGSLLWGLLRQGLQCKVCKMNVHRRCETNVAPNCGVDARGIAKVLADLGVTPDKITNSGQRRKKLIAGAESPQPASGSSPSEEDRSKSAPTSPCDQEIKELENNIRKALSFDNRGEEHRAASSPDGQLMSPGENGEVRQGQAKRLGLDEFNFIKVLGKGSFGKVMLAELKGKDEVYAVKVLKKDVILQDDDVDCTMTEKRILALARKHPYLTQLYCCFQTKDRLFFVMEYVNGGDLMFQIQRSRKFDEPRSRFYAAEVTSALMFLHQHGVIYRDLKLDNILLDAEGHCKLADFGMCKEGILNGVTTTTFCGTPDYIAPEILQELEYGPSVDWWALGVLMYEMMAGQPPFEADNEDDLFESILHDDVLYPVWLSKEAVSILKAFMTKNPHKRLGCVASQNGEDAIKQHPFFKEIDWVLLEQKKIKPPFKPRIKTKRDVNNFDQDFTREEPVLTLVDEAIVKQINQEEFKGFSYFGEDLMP

[7] = biological target: panel of 255 wild-type kinases (Homo sapiens, UniProt Q05397); settings: kinase FAK; 1 µmol/L single concentration; read-out: %-inhibition at 1 µmol/L, FAK
[8] = biological target: panel of 255 wild-type kinases (Homo sapiens, UniProt Q05655); settings: kinase PKCδ; 1 µmol/L single concentration; read-out: %-inhibition at 1 µmol/L, PKCδ
[9] = biological target: T3, panel of 255 wild-type kinases (Homo sapiens, UniProt Q96PF2); settings: kinase TSSK2; 1 µmol/L single concentration; read-out: %-inhibition at 1 µmol/L, TSSK2
T3 sequence (Q96PF2 1-358): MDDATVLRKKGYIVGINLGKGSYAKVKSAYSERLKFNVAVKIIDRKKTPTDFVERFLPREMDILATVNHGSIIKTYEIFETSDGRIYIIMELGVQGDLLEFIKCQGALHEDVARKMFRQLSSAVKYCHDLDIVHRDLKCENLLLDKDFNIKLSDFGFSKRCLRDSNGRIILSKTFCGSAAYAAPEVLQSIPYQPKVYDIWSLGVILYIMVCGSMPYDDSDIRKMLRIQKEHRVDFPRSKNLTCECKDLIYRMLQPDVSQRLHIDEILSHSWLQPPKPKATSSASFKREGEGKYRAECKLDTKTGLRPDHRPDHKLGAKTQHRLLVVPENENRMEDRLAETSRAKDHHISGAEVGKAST

[10] = kinase JAK3, 1 µmol/L single concentration

Compound	inhibition at 1 µM [1] [%]	inhibition at 1 µM [2] [%]	inhibition at 1 µM [3] [%]	inhibition at 1 µM [4, 10] [%]	inhibition at 1 µM [5] [%]	inhibition at 1 µM [6] [%]	inhibition at 1 µM [7] [%]	inhibition at 1 µM [8] [%]	inhibition at 1 µM [9] [%]	inhibition at 1 µM [4] [%]
FC(F)(F)c1ccc(CNc2ccc(Cc3c[nH]c4ncc(Cl)cc34)cn2)cn1 [pexidartinib]	6	4.68	7.59	40	6.33	1.26	30	6.48	-0.308	
CO[C@]1(C(=O)N[C@@H](C)c2ccc(-n3cc(F)cn3)nc2)CC[C@H](c2nc(C)cc(Nc3cc(C)[nH]n3)n2)CC1 [pralsetinib]	20	1.41	62	96	-2.47	0.425	14	-3	8	
CCn1c(=O)c(-c2cc(NC(=O)Nc3ccccc3)c(F)cc2Br)cc2cnc(NC)cc21 [ripretinib]	5.51	0.0973	100	7	4	6	0.833	54	-3.73	
COc1ccc(CN2C3CC2CN(c2ccc(-c4cc(OCC(C)(C)O)cn5ncc(C#N)c45)cn2)C3)cn1 [selpercatinib]	2.47	-0.427	49	27	-0.437	7	10	-2	-0.889	
Cn1cnc2c(F)c(Nc3ccc(Br)cc3Cl)c(C(=O)NOCCO)cc21 [selumetinib]	3	-0.133	-1.4	6	-4	0.617	-1.9	-4.35	-4.25	
Cc1cc(Nc2ncnc3ccc(NC4=NC(C)(C)CO4)cc23)ccc1Oc1ccn2ncnc2c1 [tucatinib]	101	-1.73	2	4.65	-3.69	-0.0549	-1.17	2.67	-0.922	
C=CC(=O)N1CCC([C@@H]2CCNc3c(C(N)=O)c(-c4ccc(Oc5ccccc5)cc4)nn32)CC1 [zanubrutinib]	69	-2.24	-1.86		-0.741	8	13	-6	0.571	10
